From patent publication US8431113B2, “Polymer conjugates” (Biocompatibles UK Limited, priority 2002, dated 2013) come the findings set out here.

The solubility is the dissolved amount per volume that the medium holds. Read a high solubility as a readily soluble substance.

Values after ≈ are worked out from the molar mass of the structure shown.

A short description of the series: Effect of polymer modification on drug solubility: maximum solubility in water at room temperature, compound added step-wise. Type of series: physicochemical. Particulars: unmodified base drug. On the procedure:
The polymer-modified compound was added step-wise to water to determine the maximum solubility at room temperature.

With `O=C(O)c1ccccc1O` [Salicylic Acid, salicylic acid], the “Solubility of Drug” value stood at 16 mM. The molecule also registered a solubility (water) of 2200 µg/mL (≈ 15.9 mM).
